Experimental findings from patent publication US7060692B2, “Active ingredient combinations comprising insecticidal and acaricidal properties” (priority 2000, dated 2006) are described below.

One assay deals with Aphis gossypii. Description: Aphis gossypii test (cotton leaves dipped). The class given is in vivo. Particulars: single active compound, 1.6 ppm, cotton leaves (Gossypium hirsutum) dipped. The protocol: (§1) To produce a suitable preparation of active compound, 1 part by weight of active compound is mixed with the stated amounts of solvent and emulsifier, and the concentrate is diluted with water to the desired concentrations.
Cotton leaves (Gossypium hirsutum), which are heavily infested by the cotton aphid (Aphis Gossypii) are treated by being dipped into the preparation of active compound of the desired concentration.
After the desired period of time, the kill in % is determined. 100% means that all aphids have been killed; 0% means that none of the aphids have been killed. The kill rates determined are calculated using Colby's formula.

The subject of a further assay is Myzus persicae. Nature of the assay: Myzus test (cabbage leaves dipped). The class given is in vivo. The conditions noted are these: single active compound, 1.6 ppm, cabbage leaves (Brassica oleracea) dipped. As for the experimental part: as §1
Cabbage leaves (Brassica oleracea), which are heavily infested by the peach aphid (Myzus persicae) are treated by being dipped into the preparation of active compound of the desired concentration.
After the desired period of time, the kill in % is determined. 100% means that all animals have been killed; 0% means that none of the animals have been killed. The kill rates determined are calculated using Colby's formula.

Consider `Cc1nc(N(C)C)nc(OC(=O)N(C)C)c1C` [pirimicarb], for which the “Kill rate in % after 6d” value in the assay on Aphis gossypii is on record as 5%.

Consider `CC[S+]([O-])CCSP(=O)(OC)OC` (centres unmarked) [oxydemeton-methyl], for which, in the assay on Myzus persicae, the “Kill rate in % after 6d” value is 0%.
